The values below come from US5798356A, “Angiostatic compounds” (Alcon Laboratories, Inc., priority 1996, dated 1998).

One assay has as its system rabbit cornea. Put plainly: rabbit model of lipopolysaccharide (LPS) induced corneal neovascularization. The assay is classed as in vivo. Conditions: Elvax-40 pellet in cornea, Elvax control = 100. The procedure:
Representative compounds of the present invention were assayed for their efficacy in inhibiting angiogenesis in vivo, in a rabbit model of lipopolysaccharide (LPS) induced corneal neovascularization. Briefly, the test compound and LPS (a stimulus for initiating neovascularization) are incorporated into separate Elvax-40 pellets as described in D. […] The area covered by new vessel formation in response to LPS is measured and suppression of neovascularization by test compounds is estimated at the end of the test period. The data is expressed as a relative area units in relation to the Elvax control (100).

Assay [1] relates to chorioallantoic membrane (CAM). The experiment in a line: inhibition of angiogenesis in a chorioallantoic membrane (CAM) model. The assay is classed as in vivo, chicken embryo. Conditions: 10 μg in liposome/agarose bead on CAM, 2 days; percent responding embryos per nanomole relative to tetrahydrocortisol. The procedure: Representative compounds of the present invention were assayed for their efficacy in inhibiting angiogenesis in a chorioallantoic membrane (CAM) model (See, McNatt, et al., Angiostatic Activity and Metabolism of Cortisol in The Chorioallantoic Membrane (CAM) of the Chick Embryo, Journal of Steriod Biochemistry and Molecular Biology, volume 42, No. 7, pages 687-693 (1992)). Briefly, 10 μg of the test compound or reference compound (tetrahydrocortisol) were suspended in a liposome/agarose bead and placed on the CAM of a 5-6 day chicken embryo. Following 2 days of incubation, the CAMs were scored for relative angiostatic activity by comparing percent responding embryos per nanomole test compound to percent responding embryos for the reference compound.

The test system of assay [2] is human lung microvascular endothelial cells. Put plainly: inhibition of 3H-thymidine uptake in DNA as a measure of DNA synthesis. The assay is classed as cell-based. Particulars: Endothelial cell, 18 hours exposure, then 3H-thymidine 6 hours; for inhibition at 5 µM: concentration 5.0 μM; for inhibition at 10 µM: concentration 10 μM; for inhibition at 25 µM: concentration 25 μM. The procedure:
Representative compounds of the present invention were assayed for their efficacy in inhibiting ^3 H-thymidine uptake in DNA as a measure of DNA synthesis (R.I. Freshney, Culture of Animal Cells, 3rd Edition, John Wiley and Sons, N.Y., N.Y., pages 277-278 (1994)). Briefly, human lung microvascular endothelial cells in mid-log phase were exposed to either a representative compound of the present invention or the vehicle (1.0% DMSO) for 18 hours. Cells were then incubated with ^3 H-thymidine for another 6 hours. DNA synthesis was stopped by the addition of cold 5% TCA solution and the relative synthesis assessed by measuring ^3 H-thymidine incorporated into the acid-insoluble product. The data is expressed as percent inhibition of uptake based on tritium counts in the vehicle control reactions.

Assay [3] deals with human umbilical vein endothelial cells (HUVEC). The experiment in a line: inhibition of endothelial cell proliferation (HUVEC). Conditions: for inhibition at 1 µM / inhibition at 5 µM / inhibition at 10 µM / inhibition at 25 µM: Homo sapiens; for inhibition at 25 µM: concentration 25 μM. The assay is classed as cell-based. The method, then: Representative compounds of the present invention were assayed for their efficacy in inhibiting endothelial cell proliferation. […] At mid-log phase the cells were detached from the plate and counted using a coulter counter. Viability tests were conducted using trypan blue. The data is expressed as percent inhibition based on the control number of endothelial cells counted.

With `C[C@]12CCC(=O)C=C1CC[C@@H]1[C@@H]2[C@@H](O)C[C@@]2(C)[C@H]1CC[C@]2(O)C(=O)COC(=O)CCC(=O)O` [Hydrocortisone hemisuccinate, reference compound], the “Relative Area of Neovascularization” value in the assay on rabbit cornea (day 4) was determined as 0 relative area units; in the assay with rabbit cornea (day 9), 1.5 relative area units; with rabbit cornea (day 15) it was 0.6 relative area units; with rabbit cornea (day 22), 4.9 relative area units.
Consider `COc1ccc2cc(C(C)C(=O)OCC3(C)Cc4c(C)c(O)c(C)c(C)c4O3)ccc2c1` (stereo not shown) [Compound B], for which the “RAF (Relative Angiostatic Factor)” value in assay [1] was 1.06. Also, the results for the inhibition at 5 µM in assay [2] and in assay [3] (concentration 5.0 μM) were 36.9% and 13.9%, respectively. The inhibition at 10 µM was 63.1% in assay [2] and 47.7% in assay [3] (concentration 10 μM). In addition, the values for the inhibition at 25 µM in assay [2] and in assay [3] were 97.9% and 60.5%, respectively. The inhibition at 1 µM in assay [3] (concentration 1.0 μM) came out at 5%.
For the compound `Cc1c(C)c2c(c(C)c1OC(=O)CCC(=O)O)CCC(C)(CCCC(C)CCCC(C)CCCC(C)C)O2` (stereo not shown) [Compound G], the “RAF (Relative Angiostatic Factor)” value in assay [1] is 1.21. This compound also yielded an inhibition at 1 µM in assay [3] (concentration 1.0 μM) of 43%. Also, in assay [3] (concentration 5.0 μM), the inhibition at 5 µM turned out to be 8%. In addition, the inhibition at 10 µM in assay [3] (concentration 10 μM) stood at 35.1%. Also, the inhibition at 25 µM in assay [3] was 65.5%.
For the compound `COc1ccc2cc(C(C)C(=O)OCCC3(C)CCc4c(C)c(O)c(C)c(C)c4O3)ccc2c1` (stereo not shown) [Compound A], the “RAF (Relative Angiostatic Factor)” value in assay [1] is on record as 0.10. Further, the inhibition at 5 µM in assay [2] worked out at 16.3%; in assay [3] (concentration 5.0 μM), 25.5%. The inhibition at 10 µM in assay [2] came to 25.7%; in assay [3] (concentration 10 μM), 43.4%. In assay [2] (concentration 15 μM), the inhibition at 15 µM was found to be 57.4%. This compound returned an inhibition at 20 µM in assay [2] (concentration 20 μM) of 82.9%. Further, the inhibition at 25 µM in assay [2] stood at 96.5%; in assay [3], 55.2%. Besides, the inhibition at 1 µM in assay [3] (concentration 1.0 μM) stood at 6.7%. The “Relative Area of Neovascularization” value in the assay on rabbit cornea (day 4) is recorded as 66 relative area units; with rabbit cornea (day 9), 54 relative area units; in the assay with rabbit cornea (day 15), 48 relative area units; in the assay on rabbit cornea (day 22), 103 relative area units.
As for `Cc1c(C)c2c(c(C)c1O)CC(C)(CCN1CCN(C(c3ccc(F)cc3)c3ccc(F)cc3)CC1)O2` (stereo not shown) [Compound E], the “RAF (Relative Angiostatic Factor)” value in assay [1] turned out to be 1.78. The inhibition at 1 µM in assay [3] (concentration 1.0 μM) is 25%. In assay [3] (concentration 5.0 μM), this compound displayed an inhibition at 5 µM of 48%. Besides, the inhibition at 10 µM in assay [3] (concentration 10 μM) amounted to 88%. Moreover, 25 µM produced 91% inhibition in assay [3]. Also, the “Relative Area of Neovascularization” value stood at 99 relative area units in the assay with rabbit cornea (day 4), 76 relative area units in the assay with rabbit cornea (day 9), 88 relative area units with rabbit cornea (day 15) and 115 relative area units in the assay on rabbit cornea (day 22).
Take Vitamin E [reference compound]: the “% Inhibition of Endothelial Cell Proliferation” value in assay [3] (concentration 1.0 μM) is recorded as 0%; in assay [3] (concentration 5.0 μM) it was 0%; in assay [3] (concentration 10 μM), 1%.
Regarding `C[C@]12CC[C@@H](O)C[C@H]1CC[C@@H]1[C@@H]2[C@@H](O)C[C@@]2(C)[C@H]1CC[C@]2(O)C(=O)CO` [Tetrahydrocortisol, tetrahydrocortisol, reference compound], in assay [1], the “RAF (Relative Angiostatic Factor)” value was 1.00.
As for `Cc1c(C)c2c(c(C)c1O)CCC(C)(CCO)O2` (stereo not shown) [F], the “Relative Area of Neovascularization” value worked out at 92 relative area units in the assay with rabbit cornea (day 4), 85 relative area units in the assay on rabbit cornea (day 9), 30 relative area units in the assay on rabbit cornea (day 15) and 39 relative area units in the assay on rabbit cornea (day 22).
`COc1ccc2cc(C(C)C(=O)NCC3(C)CCc4c(C)c(O)c(C)c(C)c4O3)ccc2c1` (stereo not shown) [C]: the “Relative Area of Neovascularization” value was 102 relative area units in the assay on rabbit cornea (day 4), 57 relative area units in the assay with rabbit cornea (day 9), 41 relative area units in the assay with rabbit cornea (day 15) and 60 relative area units in the assay with rabbit cornea (day 22).

In general, inhibition refers to the relative decrease from the control value, in per cent. Low readings indicate little suppression, high ones strong suppression.
